Source: ChEMBL document CHEMBL5120863, “Sophorolipids: Anti-cancer activities and mechanisms” (Bioorg Med Chem, 2022)
≈ marks a conversion by molar mass, not a printed value.

Tests used:
[1] = tested on: LN-229; test: Cytotoxicity against human LN-229 cells assessed as cell growth inhibition measured after 48 hrs; format: functional, cell-based; details: LN-229, 48 h
[2] = tested on: Caco-2; test: Cytotoxicity against human Caco2 cells assessed as cell growth inhibition measured after 24 by MTT assay; format: functional, cell-based
[3] = tested on: THP-1; test: Cytotoxicity against human THP-1 cells assessed as cell growth inhibition measured after 24 hrs by MTT assay; format: functional, cell-based; details: THP-1, 24 h
[4] = tested on: MCF7; test: Cytotoxicity against human MCF7 cells assessed as reduction in cell viability at 14.7 ug/ml measured after 24 hrs by MTT assay relative to control; format: functional; details: dose 14.7 µg/ml
[5] = tested on: MCF7; test: Cytotoxicity against human MCF7 cells assessed as reduction in cell viability at 14.7 ug/ml measured after 48 hrs by MTT assay relative to control; format: functional; details: dose 14.7 µg/ml
[6] = tested on: HeLa; test: Cytotoxicity against human HeLa cells assessed as cell growth inhibition measured after 48 hrs by MTT assay; format: functional, cell-based
[7] = tested on: HT-29; test: Cytotoxicity against human HT-29 cells assessed as cell growth inhibition; format: functional, cell-based
[8] = Cytotoxicity against human HEK293 cells assessed as cell growth inhibition measured after 48 hrs by MTT assay; format: toxicity, cell-based
[9] = tested on: A549; test: Cytotoxicity against human A549 cells assessed as cell growth inhibition measured after 48 hrs by MTT assay; format: functional, cell-based; details: A549, 48 h
[10] = Cytotoxicity against human CCD-841CoN cells assessed as cell growth inhibition measured after 24 hrs by MTT assay; format: toxicity, cell-based
[11] = Cytotoxicity against human HEK293 cells assessed as cell growth inhibition measured after 24 hrs by MTT assay; format: toxicity, cell-based
[12] = tested on: THP-1; test: Cytotoxicity against human THP-1 cells assessed as cell growth inhibition measured after 48 hrs by MTT assay; format: functional, cell-based; details: THP-1, 48 h
[13] = tested on: Jurkat; test: Cytotoxicity against human Jurkat cells assessed as cell growth inhibition measured after 24 hrs; format: functional, cell-based
[14] = tested on: Jurkat; test: Cytotoxicity against human Jurkat cells assessed as cell growth inhibition measured after 45 hrs; format: functional, cell-based
[15] = tested on: HeLa; test: Cytotoxicity against human HeLa cells assessed as cell growth inhibition measured after 24 hrs by MTT assay; format: functional, cell-based
[16] = Cytotoxicity against human HEK293 cells assessed as cell growth inhibition measured after 72 hrs by MTT assay; format: toxicity, cell-based
[17] = tested on: MDA-MB-231; test: Cytotoxicity against human MDA-MB-231 cells assessed as reduction in cell viability at 3.68 ug/ml measured after 24 hrs by MTT assay relative to control; format: functional; details: dose 3.68 µg/ml
[18] = tested on: LS180; test: Cytotoxicity against human LS180 cells assessed as cell growth inhibition; format: functional, cell-based
[19] = tested on: THP-1; test: Cytotoxicity against human THP-1 cells assessed as cell growth inhibition measured after 72 hrs by MTT assay; format: functional, cell-based; details: THP-1, 72 h
[20] = tested on: MDA-MB-231; test: Cytotoxicity against human MDA-MB-231 cells assessed as reduction in cell viability at 3.68 ug/ml measured after 48 hrs by MTT assay relative to control; format: functional; details: dose 3.68 µg/ml
[21] = Antitumor activity against human HeLa cells xenografted in BALB/c mouse assessed as reduction in tumor weight at 50 mg/kg, IG administered once daily for 12 days measured after 14 days; format: functional; design: scale not given: the % may be the effect or the level left; details: time 12 day
[22] = tested on: MDA-MB-231; test: Cytotoxicity against human MDA-MB-231 cells assessed as cell growth inhibition measured after 24 hrs by crystal violet staining based assay; format: functional; details: MDA-MB-231, 24 h
[23] = Antitumor activity against human HeLa cells xenografted in BALB/c mouse assessed as reduction in tumor weight at 500 mg/kg, IG administered once daily for 12 days measured after 14 days; format: functional; design: scale not given: the % may be the effect or the level left; details: time 12 day
[24] = Antitumor activity against human HeLa cells xenografted in BALB/c mouse assessed as reduction in tumor weight at 5 mg/kg, IG administered once daily for 12 days measured after 14 days; format: functional; design: scale not given: the % may be the effect or the level left; details: time 12 day
[25] = tested on: HPAC; test: Cytotoxicity against human HPAC cells assessed as reduction in LDH release at 100 ug/ml measured after 12 hrs by CytoTox96 nonradioactive assay; format: functional; design: scale not given: the % may be the effect or the level left; details: dose 100 µg/ml
[26] = tested on: Jurkat; test: Cytotoxicity against human Jurkat cells assessed as reduction in cell viability at 25 ug/ml measured after 24 hrs; format: functional; details: dose 25 µg/ml
[27] = tested on: K562; test: Cytotoxicity against human K562 cells assessed as cell growth inhibition measured after 48 hrs; format: functional, cell-based; details: K562, 48 h
[28] = tested on: HL-60; test: Cytotoxicity against human HL-60 cells assessed as cell growth inhibition measured after 48 hrs; format: functional, cell-based; details: HL-60, 48 h
[29] = tested on: A549; test: Cytotoxicity against human A549 cells assessed as cell growth inhibition measured after 48 hrs; format: functional, cell-based; details: A549, 48 h
[30] = tested on: ECa-109 cell line; test: Cytotoxicity against human Eca-109 cells assessed as cell growth inhibition measured after 24 hrs by MTT assay; format: functional, cell-based; details: ECa-109, 24 h
[31] = tested on: KYSE-450; test: Cytotoxicity against human KYSE-450 cells assessed as cell growth inhibition measured after 24 hrs by MTT assay; format: functional, cell-based; details: KYSE-450, 24 h
[32] = tested on: PANC-1; test: Cytotoxicity against human PANC-1 cells assessed as cell growth inhibition measured after 72 hrs by MTT assay; format: functional, cell-based; details: PANC-1, 72 h
[33] = tested on: HCT-116; test: Cytotoxicity against human HCT-116 cells assessed as cell growth inhibition measured after 48 hrs by MTT assay; format: functional, cell-based; details: HCT-116, 48 h
[34] = tested on: A-431; test: Cytotoxicity against human A-431 cells assessed as cell growth inhibition measured after 48 hrs by MTT assay; format: functional, cell-based; details: A-431, 48 h
[35] = tested on: MCF7; test: Cytotoxicity against human MCF7 cells assessed as cell growth inhibition measured after 48 hrs by MTT assay; format: functional, cell-based; details: MCF7, 48 h
[36] = Cytotoxicity against human HUVEC cells assessed as cell growth inhibition measured after 48 hrs by MTT assay; format: toxicity, cell-based
[37] = Cytotoxicity against human L929 cells assessed as cell growth inhibition measured after 48 hrs by MTT assay; format: toxicity, cell-based; details: mouse
[38] = tested on: PANC-1; test: Cytotoxicity against human PANC-1 cells assessed as cell growth inhibition measured after 48 hrs by MTT assay; format: functional, cell-based; details: PANC-1, 48 h

SMILES: COc1cccc2c1C(=O)c1c(O)c3c(c(O)c1C2=O)C[C@@](O)(C(=O)CO)C[C@@H]3O[C@H]1C[C@H](N)[C@H](O)[C@H](C)O1 [DOXORUBICIN]
- IC50 [1]: 2 µg/mL (≈ 3.68 µM)
- IC50 [2]: 64.2 µg/mL (≈ 118 µM)
- IC50 [3]: 15.7 µg/mL (≈ 28.9 µM)
- Activity [4]: 45%
- Activity [5]: 40%
- IC50 [6]: 13 µg/mL (≈ 23.9 µM)
- IC50 [7]: 1.6 µg/mL (≈ 2.94 µM)
- IC50 at 48 h [8]: 6.1 µg/mL (≈ 11.2 µM)
- IC50 [9]: 9.5 µM
- IC50 at 24 h [10]: 1.5 µg/mL (≈ 2.76 µM)
- IC50 at 24 h [11]: 16.7 µg/mL (≈ 30.7 µM)
- IC50 [12]: 6.5 µg/mL (≈ 12 µM)
- IC50 [13]: 1 µM
- IC50 [14]: 0.3 µM
- IC50 [15]: 7.4 µg/mL (≈ 13.6 µM)
- IC50 at 72 h [16]: 1 µg/mL (≈ 1.84 µM)
- Activity [17]: 55%
- IC50 [18]: 0.7 µg/mL (≈ 1.29 µM)
- IC50 [19]: 3 µg/mL (≈ 5.52 µM)
- Activity [20]: 45%

SMILES: CC(=O)OC[C@H]1O[C@H]2O[C@H]3[C@H](OC(C)CCCCCC/C=C\CCCCCCCC(=O)O[C@H]1[C@H](O)[C@H]2O)O[C@H](CO)[C@@H](O)[C@@H]3O (stereo partly specified)
- Activity [21]: 41.24%
- IC50 [22]: 15 µM
- Activity [23]: 52.06%
- Activity [24]: 29.9%

SMILES: CCOC(=O)CCCCCCC/C=C\CCCCCCC(C)O[C@@H]1O[C@H](COC(C)=O)[C@@H](O)[C@H](O)[C@H]1O[C@@H]1O[C@H](CO)[C@@H](O)[C@H](O)[C@H]1O (stereo partly specified)
- Activity [25]: 27.4%

SMILES: CCOC(=O)CCCCCCC/C=C\CCCCCCC(C)O[C@@H]1O[C@H](CO)[C@@H](O)[C@H](O)[C@H]1O[C@@H]1O[C@H](CO)[C@@H](O)[C@H](O)[C@H]1O (stereo partly specified)
- Activity [26]: 0%
- Activity [25]: 23.6%

SMILES: CC(=O)OC[C@H]1O[C@H]2OC(C)/C=C/C/C=C/C/C=C\C/C=C/CCCCC(=O)O[C@H]3[C@H](O)[C@@H](O)[C@H](O[C@@H]2[C@@H](O)[C@@H]1O)O[C@@H]3COC(C)=O (stereo partly specified)
- IC50 [27]: 40 µg/mL (≈ 58.6 µM)

SMILES: CC(=O)OC[C@H]1O[C@H]2OC(C)/C=C/C/C=C/C/C=C\CCCCCCCC(=O)O[C@H]3[C@H](O)[C@@H](O)[C@H](O[C@@H]2[C@@H](O)[C@@H]1O)O[C@@H]3COC(C)=O (stereo partly specified)
- IC50 [28]: 5 µg/mL (≈ 7.3 µM)
- IC50 [22]: 30 µM
- IC50 [15]: 51.5 µg/mL (≈ 75.2 µM)

SMILES: CC(=O)OC[C@H]1O[C@H]2OC(C)CCC/C=C/C/C=C\CCCCCCCC(=O)O[C@H]3[C@H](O)[C@@H](O)[C@H](O[C@@H]2[C@@H](O)[C@@H]1O)O[C@@H]3COC(C)=O (stereo partly specified)
- IC50 [29]: 22 µg/mL (≈ 32 µM)
- IC50 [30]: 15 µg/mL (≈ 21.8 µM)
- IC50 [31]: 35 µg/mL (≈ 51 µM)
- IC50 [15]: 476 µg/mL (≈ 694 µM)

SMILES: CCCCOC(=O)CCCCCCC/C=C\CCCCCCC(C)O[C@@H]1O[C@H](COC(C)=O)[C@@H](O)[C@H](O)[C@H]1O[C@@H]1O[C@H](COC(C)=O)[C@@H](O)[C@H](O)[C@H]1O (stereo partly specified)
- Activity [26]: 99%

SMILES: CC(=O)OC[C@H]1O[C@H]2OC(C)CCCCCCCCCCCCCCCC(=O)O[C@H]3[C@H](O)[C@@H](O)[C@H](O[C@@H]2[C@@H](O)[C@@H]1O)O[C@@H]3COC(C)=O (stereo partly specified)
- IC50 [22]: 15 µM
- IC50 [15]: 30.2 µg/mL (≈ 43.7 µM)

SMILES: COC(=O)CCCCCCC/C=C\CCCCCCC(C)O[C@@H]1O[C@H](COC(C)=O)[C@@H](O)[C@H](O)[C@H]1O[C@@H]1O[C@H](COC(C)=O)[C@@H](O)[C@H](O)[C@H]1O (stereo partly specified)
- Activity [25]: 25.5%

SMILES: CC(CCCCCC/C=C\CCCCCCCC(=O)O)O[C@@H]1O[C@H](CO)[C@@H](O)[C@H](O)[C@H]1O[C@@H]1O[C@H](CO)[C@@H](O)[C@H](O)[C@H]1O (stereo partly specified)
- IC50 [22]: 80 µM

SMILES: CCCCCCCCCCCCCCCCO[C@@H]1O[C@H](COC(C)=O)[C@@H](O)[C@H](O)[C@H]1O[C@@H]1O[C@H](CO)[C@@H](O)[C@H](O)[C@H]1O
- IC50 [32]: > 100 µg/mL
- IC50 [6]: 14.1 µg/mL (≈ 23.2 µM)
- IC50 [33]: 23.2 µg/mL (≈ 38.1 µM)
- IC50 [9]: 15 µg/mL
- IC50 [34]: 14.9 µg/mL (≈ 24.6 µM)
- IC50 [35]: 37.7 µg/mL (≈ 61.9 µM)
- IC50 at 48 h [36]: > 320 µg/mL
- IC50 at 48 h [37]: > 320 µg/mL
- IC50 [38]: 116 µg/mL (≈ 191 µM)

SMILES: CCOC(=O)CCCCCCC/C=C\CCCCCCC(C)O[C@@H]1O[C@H](COC(C)=O)[C@@H](O)[C@H](O)[C@H]1O[C@@H]1O[C@H](COC(C)=O)[C@@H](O)[C@H](O)[C@H]1O (stereo partly specified)
- Activity [26]: 90%

SMILES: COC(=O)CCCCCCC/C=C\CCCCCCC(C)O[C@@H]1O[C@H](CO)[C@@H](O)[C@H](O)[C@H]1O[C@@H]1O[C@H](CO)[C@@H](O)[C@H](O)[C@H]1O (stereo partly specified)
- Activity [25]: 58.4%

SMILES: CCCCOC(=O)CCCCCCC/C=C\CCCCCCC(C)O[C@@H]1O[C@H](CO)[C@@H](O)[C@H](O)[C@H]1O[C@@H]1O[C@H](CO)[C@@H](O)[C@H](O)[C@H]1O (stereo partly specified)
- Activity [26]: 0%

SMILES: CCCCCCCCCCCCCCCCO[C@@H]1O[C@H](CO)[C@@H](O)[C@H](O)[C@H]1O[C@@H]1O[C@H](CO)[C@@H](O)[C@H](O)[C@H]1O
- IC50 [32]: > 100 µg/mL
- IC50 [6]: 16.3 µg/mL (≈ 28.8 µM)
- IC50 [33]: 62.8 µg/mL (≈ 111 µM)
- IC50 [9]: 236 µg/mL
- IC50 [34]: 236 µg/mL (≈ 417 µM)
- IC50 [35]: 65.7 µg/mL (≈ 116 µM)
- IC50 at 48 h [36]: > 320 µg/mL
- IC50 at 48 h [37]: > 320 µg/mL
- IC50 [38]: 113 µg/mL (≈ 199 µM)
